Reference: patent US20150328292A1, “CASPASE POLYPEPTIDES HAVING MODIFIED ACTIVITY AND USES THEREOF” (BELLICUM PHARMACEUTICALS, INC., priority 2014, published 2015)
“And” between values parts separate entries of the source, which are not always exact repeats. Identical values can stand only once. “Also recorded” adds a separate entry of the source. Like-named read-outs stand apart in the source and are kept apart here. Each block holds one molecule with its values, some of them ahead of it.

Columns and labels:
[1] = system: iCasp9M-transduced EBV-CTLs; experiment: Loss of GFP-expressing iCasp9M-transduced EBV-CTLs after CID (flow cytometry); type: cell-based, human
[2] = system: F-Casp9M.I.GFPhigh-transduced T cells; experiment: annexin-V/7-AAD staining of CID-treated transduced CTLs; type: cell-based, human; details: GFPhigh-selected, overnight 10 nM CID
Description: CID (AP20187; ARIAD Pharmaceuticals) at indicated concentrations was added to transfected 293T cells or transduced CTLs. Adherent and nonadherent cells were harvested and washed with annexin binding buffer (BD Pharmingen, San Jose, Calif.). Cells were stained with annexin-V and 7-amino-actinomycin D (7-AAD) for 15 minutes according to the manufacturer's instructions (BD Pharmingen). Within 1 hour after staining, cells were analyzed by flow cytometry using CellQuest software (Becton Dickinson).

[3] = system: iCasp9M.IRES.GFPhigh-transduced CTLs; experiment: SCID mouse-human xenograft model, elimination of transduced CTLs by CID; type: in vivo; details: single dose of CID (50 μg AP20187 i.p.), vs carrier
Description: Non-obese diabetic severe combined immunodeficient (NOD/SCID) mice, 6 to 8 weeks of age, were irradiated (250 rad) and injected subcutaneously in the right flank with 10×10^6 to 15×10^6 LCLs resuspended in Matrigel (BD Bioscience). Two weeks later mice bearing tumors that were approximately 0.5 cm in diameter were injected into the tail vein with a 1:1 mixture of nontransduced and iCasp9.I.GFPhigh-transduced EBV CTLs (total 15×10^6). At 4 to 6 hours prior and 3 days after CTL infusion, mice were injected intraperitoneally with recombinant hIL-2 (2000 U; Proleukin; Chiron). On day 4, the mice were randomly segregated in 2 groups: 1 group received CID (50 μg AP20187, intraperitoneally) and 1 group received carrier only (16.7% propanediol, 22.5% PEG400, and 1.25% Tween 80, intraperitoneally). […] By FACS analysis, the number of GFP+ cells within the gated CD3^+ population was evaluated. […]
The function of iCasp9M in vivo is graphically illustrated in FIG. 7. […] On day 3 after CTL administration, mice received either CID (50 μg AP20187; (black diamonds, n=6) or carrier only (black squares, n=5) and on day 6 the presence of human CD3+/GFP+ T cells in the tumors was analyzed. Human CD3+ T cells isolated from the tumors of a control group of mice that received only nontransduced CTLs (15×10^6 CTLs; n=4) were used as a negative control for the analysis of CD3+/GFP+ T cells within the tumors.

[4] = system: gene-modified allodepleted cells; experiment: Induction of apoptosis with AP20187 in gene-modified allodepleted cells (annexin V/7-AAD); type: cell-based, human
Description: Suicide gene functionality was assessed by adding a small molecule synthetic homodimerizer, AP20187 (Ariad Pharmaceuticals; Cambridge, Mass.), at 10 nM final concentration the day following CD19 immunomagnetic selection. Cells were stained with annexin V and 7-aminoactinomycin (7-AAD)(BD Pharmingen) at 24 hours and analyzed by flow cytometry. Cells negative for both annexin V and 7-AAD were considered viable, cells that were annexin V positive were apoptotic, and cells that were both annexin V and 7-AAD positive were necrotic. The percentage killing induced by dimerization was corrected for baseline viability as follows: Percentage killing=100%−(% Viability in AP20187-treated cells÷ % Viability in non-treated cells).
Cells were maintained in T cell medium containing 50 U/ml IL-2 until 22 days after transduction. A portion of cells was reactivated on 24-well plates coated with […] OKT3 and 1 μg/ml anti-CD28 (Clone CD28.2, BD Pharmingen, San Jose, Calif.) for 48 to 72 hours. CD19 expression and suicide gene function in both reactivated and non-reactivated cells were measured on day 24 or 25 post transduction.
In some experiments, cells also were cultured for 3 weeks post transduction and stimulated with 30G-irradiated allogeneic PBMC at a responder:stimulator ratio of 1:1. After 4 days of co-culture, a portion of cells was treated with 10 nM AP20187. Killing was measured by annexin V/7-AAD staining at 24 hours, and the effect of dimerizer on bystander virus-specific T cells was assessed by pentamer analysis on AP20187-treated and untreated cells.

iCasp9-transduced MSCs = experiment: Apoptosis of undifferentiated iCasp9-transduced MSCs after CID (annexin V/7-AAD FACS); type: cell-based, human
Description: Undifferentiated MSCs. The chemical inducer of dimerization (CID) (AP20187; ARIAD Pharmaceuticals, Cambridge, Mass.) was added at 50 nM to iCasp9-transduced MSCs cultures in complete medium. Apoptosis was evaluated 24 hours later by FACS analysis, after cell harvest and staining with annexin V-PE and 7-AAD in annexin V binding buffer (BD Biosciences, San Diego, Calif.). Control iCasp9-transduced MSCs were maintained in culture without exposure to CID.

[5] = system: differentiated iCasp9-positive MSCs; experiment: Apoptosis of differentiated iCasp9-transduced MSCs after CID (TUNEL, cell density); type: cell-based, human; details: adipocytic differentiation, 50 nM CID, after 24 hours (from 584)
Description: Differentiated MSCs. Transduced MSCs were differentiated as presented above. At the end of the differentiation period, CID was added to the differentiation media at 50 nM. Cells were stained appropriately for the tissue being studied, as presented above, and a contrast stain (methylene azur or methylene blue) was used to evaluate the nuclear and cytoplasmic morphology. In parallel, tissues were processed for terminal deoxynucleotidyl-transferase dUTP nick end labeling (TUNEL) assay as per manufacturer instructions (In Situ Cell Death Detection Kit, Roche Diagnostics, Mannheim, Germany). For each time point, four random fields were photographed at a final magnification of 40× and the images were analyzed with ImageJ software version 1.43o (NIH, Bethesda, Md.). Cell density was calculated as the number of nuclei (DAPI positivity) per unit of surface area (in mm^2). The percentage of apoptotic cells was determined as the ratio of the number of nuclei with positive TUNEL signal (FITC positivity) to the total number of nuclei. Controls were maintained in culture without CID.

[6] = system: iCasp9-ΔCD19-transduced MSCs; experiment: In vivo killing of iCasp9-transduced MSCs in SCID mice (luminescence, qPCR); parameters: species or system mouse
[7] = biological target: chimeric caspase-9 polypeptide (Homo sapiens, UniProt P55211+P62942, F37V); experiment: AP1903-triggered apoptosis/signaling of cells expressing chimeric caspase-9 polypeptide; type: cell-based
Chain of chimeric caspase-9 polypeptide (P62942 2-108 F37V limits assumed): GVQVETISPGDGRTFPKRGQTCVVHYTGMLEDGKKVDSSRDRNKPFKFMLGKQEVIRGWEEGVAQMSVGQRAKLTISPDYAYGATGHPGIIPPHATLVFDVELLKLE
Chain of chimeric caspase-9 polypeptide (P55211 135-416 limits assumed): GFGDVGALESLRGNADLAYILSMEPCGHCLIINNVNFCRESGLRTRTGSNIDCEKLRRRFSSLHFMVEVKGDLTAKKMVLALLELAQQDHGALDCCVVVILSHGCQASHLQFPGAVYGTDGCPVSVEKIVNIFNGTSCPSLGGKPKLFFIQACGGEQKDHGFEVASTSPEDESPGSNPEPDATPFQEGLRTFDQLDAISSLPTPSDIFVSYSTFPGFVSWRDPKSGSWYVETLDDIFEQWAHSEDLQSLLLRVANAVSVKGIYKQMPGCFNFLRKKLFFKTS

CD3+ΔCD19+ cells = experiment: CASPALLO phase I clinical trial, AP1903 in patients with GvHD after iCasp9 T cells; type: in vivo, human
human CD3+CD19+ T cells = experiment: AP1903 dose-dependent elimination in vivo of transduced T cells in NSG mice; parameters: species or system mouse; details: T cells with wild-type iCasp9, i.p., 24 hours
Description: T cells were transduced with SFG-iCasp9-2A-ΔCD19 retrovirus and injected i.v. into immune deficient mice (NSG). […] After an additional 24 hours, mice were sacrificed and lymphocytes from the spleen (FIG. 61A) and peripheral blood (FIG. 61B) were isolated and analyzed by flow cytometry for the frequency of human CD3+CD19+ T cells.
T cells were transduced with SFG-iCasp9-D330E-2A-ΔCD19 retrovirus and injected i.v. into immune deficient mice (NSG). […] After an additional 24 hours, mice were sacrificed and lymphocytes from the spleen (A) were isolated and analyzed by flow cytometry for the frequency of human CD3+CD19+ T cells.

[8] = cited from earlier work; for safety and tolerability: healthy volunteers, 0.01-1.0 mg/kg
[9] = system: Primary T cells from healthy donors
[10] = 10 nM, 24 hours, day after CD19 selection

Molecule: CC[C@H](C(=O)N1CCCC[C@H]1C(=O)O[C@H](CCc1ccc(OC)c(OC)c1)c1cccc(OCC(=O)NCC(CNC(=O)COc2cccc([C@@H](CCc3ccc(OC)c(OC)c3)OC(=O)[C@@H]3CCCCN3C(=O)[C@@H](CC)c3cc(OC)c(OC)c(OC)c3)c2)CN(C)C)c1)c1cc(OC)c(OC)c(OC)c1 [AP20187]
- CID concentration sufficient to obtain the maximal deletion effect ([1]; F-Casp9M.I.GFPhigh, day 7): 1 nM
- reduction in mean fluorescence intensity of GFP in surviving CTLs ([1]; after CID): 70%
- GFP+ cells eliminated ([1]; unselected CTLs, single 10-nM dose of CID, 5 donors): 91.3%
- apoptotic (annexin-V+/7-AAD−) phenotype [2]: 64%
- necrotic (annexinV+/7-AAD+) phenotype ([2]; listed as CID): 30% and 32%
- reduction in the number of human CD3+/GFP+ T cells in tumors ([3]; listed as CID): > 99%
- reduction in the number of human CD3+/GFP+ T cells in tumors ([3]; listed as dimerizer): more than 99%
- Killing efficiency after correction for baseline viability [4, 10]: about 92.9%±3.8%
- viable cells after AP20187 [4, 10]: about 5.5%±2.5%
- killing efficiency ([4]; OKT3/aCD28-reactivated cells, day 24 or 25): ~84.6%±8.0%
- effect on virus-specific T cells (pentamer analysis) ([4]; allostimulated cells, 10 nM AP20187): spares (and thereby enriches) viral reactive subpopulations
- killing efficiency ([4]; day 5 post transduction): 93.1±3.5%
- residual viability ([4]; day 24 post transduction, 10 nM AP20187): 19.6±5.6%
- killing efficiency ([4]; day 24 post transduction, non-reactivated): 63.1±6.2% and ~63.1%±6.2%
- percentage killing ([4]; large scale (n=3)): about 95.4%
- mean viability with AP20187 ([4]; large scale CD19 selection (n=3)): about 3.9%
- viability of non-transduced cells with AP20187 ([4]; non-transduced cells (n=6)): about 86%±9%
- Killing ([4]; reactivated, CD25 negative fraction): 78.6±9.1%
- percentage killing ([4]; small scale (n=5)): about 91.4%
- mean viability with AP20187 ([4]; small scale CD19 selection (n=5)): about 6.6%
- apoptosis / elimination of iCasp9-modified T cells after dimerizer ([4]; summary statement, listed as small-molecule dimerizer): > 90%
- annexin positive non-transduced control MSC (Control/CID) (iCasp9-transduced MSCs; CID 50 nM, 24 hours): 15%
- apoptosis index of iCasp9-negative cells (iCasp9-transduced MSCs; CID 50 nM, 24 hrs, listed as CID): 20±7% and 19%
- apoptotic death of iCasp9-positive cells (iCasp9-transduced MSCs; CID 50 nM, within 24 hrs): 93±1%
- apoptotic cells among magnetically immunoselected iCasp9-CD19-positive cells (iCasp9-transduced MSCs; after exposure to CID): More than 95%
- cell density [5]: < 14 cells/mm2
- proportion of surviving iCasp9-positive cells ([6]; mouse, in vivo): 0.7%
- killing / depletion of iCasp9-positive MSCs in vivo ([6]; two injections of 50 μg of CID 24 hours apart): > 99%

- amount of AP1903 needed in vitro for effective signaling of cells [7]: 0.1 to 10 nM
Molecule: CC[C@H](C(=O)N1CCCC[C@H]1C(=O)O[C@H](CCc1ccc(OC)c(OC)c1)c1cccc(OCC(=O)NCCNC(=O)COc2cccc([C@@H](CCc3ccc(OC)c(OC)c3)OC(=O)[C@@H]3CCCCN3C(=O)[C@@H](CC)c3cc(OC)c(OC)c(OC)c3)c2)c1)c1cc(OC)c(OC)c(OC)c1 (relative stereo) [AP1903, 2-Piperidinecarboxylic acid, 1-[(2S)-1-oxo-2-(3,4,5-trimethoxyphenyl)butyl]-, 1,2-ethanediylbis[imino(2-oxo-2,1-ethanediyl)oxy-3,1-phenylene[(1R)-3-(3,4-dimethoxyphenyl)propylidene]]ester, [2S-[1(R*),2R*[S*[S*[1(R*),2R*]]]]]-(9Cl)]
- time to normalization of bilirubin concentration (CD3+ΔCD19+ cells; patient 1, post-treatment): ≤ 24 h
- time to disappearance of skin rash (CD3+ΔCD19+ cells; patient 2, post treatment): ≤ 24 h
- time to resolution of skin and liver aGvHD (CD3+ΔCD19+ cells; patients with grade I/II aGVHD): ≤ 24 h
- ablation of CD3+ΔCD19+ cells (CD3+ΔCD19+ cells; within 30 minutes of infusion, 0.4 mg/kg): > 90%
- further reduction of CD3+ΔCD19+ cells (CD3+ΔCD19+ cells; within 24 hours): further log reduction
- AP1903 dose sufficient to eliminate most modified T cells in vivo (human CD3+CD19+ T cells): 0.5 mg/kg
- adverse event considered possibly related ([8]; 1 volunteer at 1.0 mg/kg, facial flushing): vasodilatation
- plasma level, % of maximal concentration ([8]; 2 hours post-dose): ~7%
- plasma level, % of maximal concentration ([8]; 10 hours post-dose): ~1%
- safety and tolerability [8]: proven safe in healthy volunteers; also recorded: safe and well tolerated at all dose levels; also recorded: proven safe at the required dose; also recorded: substantially no significant adverse effects
- safety and tolerability ([8]; listed as API903): No serious adverse events

B1: N405Qco: codon-optimized version of the modified caspase-9 polypeptide having the N405Q substitution, SEQ ID NO: 39/40 (protein)
chain: VDGFGDVGALESLRGNADLAYILSMEPCGHCLIINNVNFCRESGLRTRTGSNIDCEKLRRRFSSLHFMVEVKGDLTAKKMVLALLELARQDHGALDCCVVVILSHGCQASHLQFPGAVYGTDGCPVSVEKIVNIFNGTSCPSLGGKPKLFFIQACGGEQKDHGFEVASTSPEDESPGSNPEPDATPFQEGLRTFDQLDAISSLPTPSDIFVSYSTFPGFVSWRDPKSGSWYVETLDDIFEQWAHSEDLQSLLLRVANAVSVKGIYKQMPGCFQFLRKKLFFKTSASRA
- AP1903-dependent cytotoxicity / sensitivity in transduced T cells [9]: very subtle effect on inducible caspase function
